Reference: patent publication US6469002B1, “Imidazolidine compounds” (Millennium Pharmaceuticals, Inc., priority 2001, dated 2002)

target: T1, CXCR3 (Homo sapiens, UniProt P49682); test: CXCR3/IP-10 radioligand binding (125I-IP-10 competition, CXCR3.L1/2 cell membranes); conditions: Table 6; test compound 10 μmol/L; 125I-labeled IP-10 binding to CXCR3.L1/2 transfectant cell membrane
T1 construct: expressed in transfected cells
T1 sequence (P49682 1-368): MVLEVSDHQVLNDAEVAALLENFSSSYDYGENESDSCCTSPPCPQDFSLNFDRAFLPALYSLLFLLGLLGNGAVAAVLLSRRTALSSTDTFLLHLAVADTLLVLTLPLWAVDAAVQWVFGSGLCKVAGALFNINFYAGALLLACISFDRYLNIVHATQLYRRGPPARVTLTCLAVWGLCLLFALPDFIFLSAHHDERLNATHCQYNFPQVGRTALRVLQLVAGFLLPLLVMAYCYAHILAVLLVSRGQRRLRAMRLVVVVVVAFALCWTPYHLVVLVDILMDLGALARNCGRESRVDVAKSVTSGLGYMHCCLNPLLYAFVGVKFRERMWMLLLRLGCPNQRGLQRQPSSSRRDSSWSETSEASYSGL
Text: The activity of the compounds of the present invention can be assessed using a suitable assay, such as a receptor binding assay, a chemotaxis assays, an extracellular acidification assay or a calcium flux assay (see, for example, Hesselgesser et al., J. Biol. Chem. 273(25):15687-15692 (1998) and WO 98/02151). For example, as described herein, small organic molecule antagonists of CXCR3/IP-10 binding have been identified utilizing cells engineered to express recombinant human CXCR3 (CXCR3.L1/2) and which bind ^125I-IP-10 and chemotax in response to IP-10, Mig or I-TAC. Specifically, a high through-put receptor binding assay, which monitors ^125I-IP-10 binding to CXCR3.L1/2 cell membranes, was used to identify small molecule antagonists which block binding of IP-10, Mig or I-TAC to CXCR3.
CXCR3.L1/2 cells were pelleted by centrifugation and stored at −80° C. The cells were lysed by thawing and resuspending at about 1.5×10^7 cells/ml in a hypotonic buffer (5 m mol/L HEPES (pH 7.2), 2 mmol/L EDTA, 10 μg/ml each leupeptin, aprotinin, and chymostatin, and 100 μg/ml PMSF (all from Sigma, St. Louis)). Nuclei and cellular debris was removed by centrifugation ([…], at 4° C.) for 10 min. The supematant was transferred to chilled centrifuge tubes (Nalge, Rochester, N.Y.) and the membrane fraction was recovered by centrifugation (25,000 g at 4° C.) for 45 min. The membrane pellet was resuspended in freezing buffer (10 mM HEPES (pH 7.2), 300 mmol/L Sucrose, 5 μg/ml each of leupeptin, aprotinin, and chymostatin, and 10 μg/ml PMSF). The total protein concentration was determined using a coomassie blue staining protein concentration assay kit (BioRad). The membrane preparation was aliquoted and stored at −80° C. until time of use.
CXCR3/IP-10 binding was performed in 96-well polypropylene plates (Costar) in a final volume of 0.1 ml of HBB buffer (50 mmol/L Hepes pH 7.4, 1 mmol/L CaCl2, 5 mmol/L MgCl2, 0.02% sodium azide, 0.5% BSA (bovine serum albumin)) containing 1 to 5 μg of CXCR3.L1/2 transfectant cell membrane protein and 0.05 to 0.2 nmol/L ^125I-labeled IP-10 (NEN, Boston, Mass.). Competition binding experiments were performed by including variable concentrations of unlabeled IP-10 or test compound. Nonspecific binding was determined following the addition of a 250 nmol/L unlabelled IP-10. Samples were incubated for 60 min at room temperature, and bound and free tracer (^125I-IP10) were separated by filtration through 96-well GF/B filterplates (Packard) presoaked in 0.3% polyethyleneimine. The filters were washed in HBB further supplemented with 0.5 mol/L NaCl, dried, and the amount of bound radioactivity determined by liquid scintillation counting. The competition is presented as the percent specific binding as calculated by 100×[(S-B)/(T-B)], where S is the radioactivity bound for each sample, B is background binding, and T is total bound in the absence of competitors. Duplicates were used throughout the experiments.

inhibition at 10 µM [%]	Structure (SMILES)
99	CCN(CCN1CCN(C(=O)c2cc(C)cc(C)c2)C1=C(C#N)C#N)Cc1ccc(CN2CCCCC2)cc1 [Compound 25, 1-[2-{N-Ethyl-N-(4-(1-piperidinomethyl)benzyl)amino}ethyl]-3-(3,5-dimethylbenzoyl)-2-imidazolidinylidenepropanedinitrile]
64	CCN(CCN1CCN(Cc2cc(C)cc(C)c2)C1=C(C#N)C#N)C(=O)c1ccc(CN2CCCCC2)cc1 [Compound 26, 1-[2-{N-Ethyl-N-(4-(1-piperidinomethyl)benzoyl)amino}ethyl]-3-(3,5-dimethylbenzyl)-2-imidazolidinylidenepropanedinitrile]
72	CCN(CCN1CCN(Cc2cccc3ccccc23)C1=C(C#N)C#N)C(=O)c1ccc(CN2CCCCC2)cc1 [Compound 27, 1-[2-{N-Ethyl-N-(4-(1-piperidinomethyl)benzoyl)amino}ethyl]-3-(1-naphthylmethyl)-2-imidazolidinylidenepropanedinitrile]
41	CCN(CCN1CCN(Cc2cc(Cl)cc(Cl)c2)C1=C(C#N)C#N)C(=O)c1ccc(CN2CCCCC2)cc1 [Compound 28, 1-[2-{N-Ethyl-N-(4-(1-piperidinomethyl)benzoyl)amino}ethyl]-3-(3,5-dichlorobenzyl)-2-imidazolidinylidenepropanedinitrile]
51	CCCNCc1ccc(C(=O)N(CC)CCN2CCN(Cc3cc(C)cc(C)c3)C2=C(C#N)C#N)cc1 [Compound 29, 1-[2-{N-Ethyl-N-(4-(-1-propylaminomethyl)benzoyl)amino}ethyl]-3-(3,5-dimethylbenzyl)-2-imidazolidinylidenepropanedinitrile]
73	CCCNCc1ccc(C(=O)N(CC)CCN2CCN(Cc3cc(Cl)cc(Cl)c3)C2=C(C#N)C#N)cc1 [Compound 30, 1-[2-{N-Ethyl-N-(4-(1-propylaminomethyl)benzoyl)amino}ethyl]-3-(3,5-dichlorobenzyl)-2-imidazolidinylidenepropanedinitrile]
